Data taken from paper PMC12299926 (Pharmaceuticals, 2025).

Legend:
[1] = Plasma pharmacokinetics after per os enrofloxacin alone or with per os propolis (HPLC-FL, non-compartmental analysis); conditions: rabbit plasma, CPR = metabolite of ENR
Procedure: (§1) This study was carried out under ideal conditions for rabbits, with ad libitum food and water. A total of 12 New Zealand White female rabbits, aged 4–6 months and weighing 2500–3000 g, were used in this study. The rabbits were randomly allocated into two groups, and each group consisted of six animals in the first phase of the study. This study was performed according to a two-phase longitudinal pharmacokinetic design. A 40-day elimination period was allowed between the treatments.
(§2) The collected blood samples were centrifuged at 13,000 rpm for 10 min, and plasma was removed and stored at −20 °C until HPLC analysis.
The mobile phase consisted of acetonitrile, and methanol (50:50) and potassium phosphate monobasic (20 mM, pH: 3.40) were delivered in an isocratic fashion at a flow rate of 1 mL/min. The fluorescence detector (FL, G1321B, Agilent, Germany) was at an excitation wavelength of 280 nm and an emission wavelength of 450 nm. […]
(§3) The plasma concentration–time curves obtained after each treatment in the individual animals were fitted with the WinNonlin software program (Version 5.2, Pharsight Corporation, Mountain View, CA, USA). The pharmacokinetic parameters for each animal were analyzed using non-compartmental model analysis. […]
The mean residence time (MRT) was calculated as follows: MRT0→∞ = AUMC0→∞/AUC0→∞ […]

[2] = propolis coadministered with duloxetine; ref [19]; cited from earlier work
[3] = 16 volunteers; subtherapeutic doses with propolis (375 mg/day); ref [21]; cited from earlier work
[4] = Observation of systemic or local adverse effects during the study; conditions: rabbits; enrofloxacin per os 20 mg/kg or IM 10 mg/kg, propolis 100 mg resin/kg per os
Procedure: The significance of the results was analyzed pharmacokinetically.
as §1

[5] = Plasma pharmacokinetics after intramuscular enrofloxacin alone or with per os propolis (HPLC-FL, non-compartmental analysis); conditions: after ENR 10 mg/kg IM alone
Procedure: as §1, §2
The mobile phase consisted of acetonitrile, and methanol (50:50) and potassium phosphate monobasic (20 mM, pH: 3.40) were delivered in an isocratic fashion at a flow rate of 1 mL/min. The fluorescence detector (FL, G1321B, Agilent, Germany) was at an excitation wavelength of 280 nm and an emission wavelength of 450 nm. The Photo Diode Array Detector (DAD) was set at a wavelength of 279 nm for marbofloxacin (I.S.) analysis. The injection volume was 50 µL throughout the analysis, and a chromatographic analysis was completed in 10 min for plasma samples following injection. […]
as §3
The mean residence time (MRT) was calculated as follows: MRT0→∞ = AUMC0→∞/AUC0→∞
Terminal half-life (T1/2λz) was calculated as follows: T1/2λz= −ln(2)/λz where λz represents the first-order rate constant associated with the terminal (log-linear) portion of the curve.
The pharmacokinetic parameters are reported as mean (±SD). Harmonic means were calculated for T1/2λz and MRT0–∞. […] Non-normally distributed data were analyzed by a non-parametric Mann–Whitney U-Test; meanwhile, normally distributed data were compared by independent t-test using SPSS Statistics 23.0 (IBM Corp, Armonk, NY, USA). […]

O=C(O)c1cn(C2CC2)c2cc(N3CCNCC3)c(F)cc2c1=O [CPR + PP]
AUMC0-∞ (dose-normalized) ([1]; after ENR 20 mg/kg per os with propolis 100 mg resin/kg): 63.99±17.18 µg.h2/ml

CNCC[C@H](Oc1cccc2ccccc12)c1cccs1 [duloxetine]
increase in AUC with propolis coadministration [2]: 20–30% | increase in Cmax with propolis coadministration [2]: 20–30%

CCCCc1nc(Cl)c(CO)n1Cc1ccc(-c2ccccc2-c2nn[nH]n2)cc1 [losartan]
change of AUC with propolis [3]: decreased

Cn1c(=O)c2c(ncn2C)n(C)c1=O [caffeine]
change of AUC with propolis [3]: decreased

CCN1CCN(c2cc3c(cc2F)c(=O)c(C(=O)O)cn3C2CC2)CC1 [ENR, enrofloxacin]
systemic or local adverse effects [4]: neither systemic nor local adverse effects were observed | AUMC0-∞ (dose-normalized) ([5]; dose-normalized, rabbit plasma, CPR = metabolite of ENR): 59.21±18.78 µg.h2/ml | Cmax ([5]; female, New Zealand White, rabbit, plasma, im, 10 mg/kg, Cmax, n = 6, CPR = metabolite of ENR): 2980 ± 350 ng/mL | Tmax ([5]; female, New Zealand White, rabbit, plasma, im, 10 mg/kg, Tmax, n = 6, CPR = metabolite of ENR): 28.2 ± 4.8 min

Cc1ncc2n1-c1ccc(Cl)cc1C(c1ccccc1F)=NC2 [midazolam]
change of AUC with propolis [3]: increased

O=C(O)c1cn(C2CC2)c2cc(N3CCNCC3)c(F)cc2c1=O [CPR, ciprofloxacin]
AUMC0-∞ (dose-normalized) ([1]; after ENR 20 mg/kg per os alone): 27.72±13.72 µg.h2/ml

COc1ccc2[nH]c([S+]([O-])Cc3ncc(C)c(OC)c3C)nc2c1 (stereo not drawn) [omeprazole]
change of AUC with propolis [3]: increased
